ChEMBL document CHEMBL4507261, “Data for DCP probe A-192621” (2021)

How the values were obtained:
[1] = molecular target: Serine/threonine-protein kinase TBK1 (Homo sapiens) (UniProt Q9UHD2); settings: Compound concentration 1000.0 nM
[2] = molecular target: NUAK family SNF1-like kinase 2 (Homo sapiens) (UniProt Q9H093); settings: Compound concentration 1000.0 nM
[3] = molecular target: Motilin receptor (Homo sapiens) (UniProt O43193); assay: motilin (h Eurofins-Cerep binding assay; parameters: ligand concentration 0.05 nM; settings: filed as agonist, Compound concentration 10.0 uM
[4] = molecular target: Testis-specific serine/threonine-protein kinase 3 (Homo sapiens) (UniProt Q96PN8); settings: Compound concentration 1000.0 nM
[5] = molecular target: Tyrosine-protein kinase Blk (Homo sapiens) (UniProt P51451); settings: Compound concentration 1000.0 nM
[6] = molecular target: Phosphatidylinositol 4-phosphate 5-kinase type-1 gamma (Homo sapiens) (UniProt O60331); settings: Compound concentration 1000.0 nM
[7] = molecular target: Sodium-dependent serotonin transporter (Homo sapiens) (UniProt P31645); assay: 5-HT transporter (h) Eurofins-Cerep binding assay; parameters: ligand concentration 2 nM; settings: filed as antagonist, Compound concentration 10.0 uM
[8] = molecular target: Insulin receptor (Homo sapiens) (UniProt P06213); settings: Compound concentration 1000.0 nM
[9] = molecular target: Microtubule-associated serine/threonine-protein kinase 1 (Homo sapiens) (UniProt Q9Y2H9); settings: Compound concentration 1000.0 nM
[10] = molecular target: Angiopoietin-1 receptor (Homo sapiens) (UniProt Q02763); settings: Compound concentration 1000.0 nM
[11] = molecular target: GABA-A receptor; anion channel (Rattus norvegicus) (UniProt O09028+P15431+P18506+P18508+P19969+P20236+P23574+P23576+P28471+P28473+P30191+P62813+P63079+P63138+Q91ZM7+Q9ES14); assay: Cl- channel (GABA-gated) Eurofins-Cerep binding assay; assay type: protein-complex assay; parameters: ligand concentration 3 nM; settings: filed as antagonist, Compound concentration 10.0 uM
[12] = molecular target: Serine/threonine-protein kinase PLK2 (Homo sapiens) (UniProt Q9NYY3); settings: Compound concentration 1000.0 nM
[13] = molecular target: Mast/stem cell growth factor receptor Kit (Homo sapiens) (UniProt P10721); settings: Compound concentration 1000.0 nM
[14] = molecular target: Serine/threonine-protein kinase Nek9 (Homo sapiens) (UniProt Q8TD19); settings: Compound concentration 1000.0 nM
[15] = molecular target: Non-receptor tyrosine-protein kinase TNK1 (Homo sapiens) (UniProt Q13470); settings: Compound concentration 1000.0 nM
[16] = molecular target: Beta-2 adrenergic receptor (Homo sapiens) (UniProt P07550); assay: Beta2 (h) Eurofins-Cerep binding assay; parameters: ligand concentration 0.3 nM; settings: filed as antagonist, Compound concentration 10.0 uM
[17] = molecular target: Proto-oncogene tyrosine-protein kinase receptor Ret (Homo sapiens) (UniProt P07949); settings: Compound concentration 1000.0 nM
[18] = molecular target: B2 bradykinin receptor (Homo sapiens) (UniProt P30411); assay: B2 (h) Eurofins-Cerep binding assay; parameters: ligand concentration 0.3 nM; settings: filed as agonist, Compound concentration 10.0 uM
[19] = molecular target: TRAF2 and NCK-interacting protein kinase (Homo sapiens) (UniProt Q9UKE5); settings: Compound concentration 1000.0 nM
[20] = system: Tyrosine-protein kinase ABL1 (Homo sapiens), P00519 [T315I]; settings: Compound concentration 1000.0 nM
[21] = molecular target: Serine/threonine-protein kinase D1 (Homo sapiens) (UniProt Q15139); settings: Compound concentration 1000.0 nM
[22] = molecular target: Myotonin-protein kinase (Homo sapiens) (UniProt Q09013); settings: Compound concentration 1000.0 nM
[23] = molecular target: Mitogen-activated protein kinase kinase kinase 20 (Homo sapiens) (UniProt Q9NYL2); settings: Compound concentration 1000.0 nM
[24] = molecular target: Mitogen-activated protein kinase 6 (Homo sapiens) (UniProt Q16659); settings: Compound concentration 1000.0 nM
[25] = molecular target: Phosphatidylinositol 3-kinase C2 domain-containing subunit gamma (Homo sapiens) (UniProt O75747); settings: Compound concentration 1000.0 nM
[26] = molecular target: Cyclin-dependent kinase 5 (Homo sapiens) (UniProt Q00535); settings: Compound concentration 1000.0 nM
[27] = molecular target: Activin receptor type-1 (Homo sapiens) (UniProt Q04771); settings: Compound concentration 1000.0 nM
[28] = molecular target: 5-hydroxytryptamine receptor 7 (Homo sapiens) (UniProt P34969); assay: 5-HT7 (h) Eurofins-Cerep binding assay; parameters: ligand concentration 4 nM; settings: filed as agonist, Compound concentration 10.0 uM
[29] = system: Epidermal growth factor receptor (Homo sapiens), P00533 [L861Q]; settings: Compound concentration 1000.0 nM
[30] = molecular target: Ribosomal protein S6 kinase alpha-3 (Homo sapiens) (UniProt P51812); settings: Compound concentration 1000.0 nM
[31] = molecular target: Fibroblast growth factor receptor 3 (Homo sapiens) (UniProt P22607); settings: Compound concentration 1000.0 nM
[32] = molecular target: Muscarinic acetylcholine receptor M1 (Homo sapiens) (UniProt P11229); assay: M1 (h) Eurofins-Cerep binding assay; parameters: ligand concentration 2 nM; settings: filed as antagonist, Compound concentration 10.0 uM
[33] = molecular target: Homeodomain-interacting protein kinase 3 (Homo sapiens) (UniProt Q9H422); settings: Compound concentration 1000.0 nM
[34] = molecular target: Glycogen synthase kinase-3 beta (Homo sapiens) (UniProt P49841); settings: Compound concentration 1000.0 nM
[35] = molecular target: Receptor-interacting serine/threonine-protein kinase 1 (Homo sapiens) (UniProt Q13546); settings: Compound concentration 1000.0 nM
[36] = molecular target: Fibroblast growth factor receptor 4 (Homo sapiens) (UniProt P22455); settings: Compound concentration 1000.0 nM
[37] = system: Epidermal growth factor receptor (Homo sapiens), P00533 [UNDEFINED MUTATION]; settings: Compound concentration 1000.0 nM
[38] = system: Mast/stem cell growth factor receptor Kit (Homo sapiens), P10721 [V559D,T670I]; settings: Compound concentration 1000.0 nM
[39] = molecular target: Serine/threonine-protein kinase 35 (Homo sapiens) (UniProt Q8TDR2); settings: Compound concentration 1000.0 nM
[40] = molecular target: Interleukin-1 receptor-associated kinase 4 (Homo sapiens) (UniProt Q9NWZ3); settings: Compound concentration 1000.0 nM
[41] = molecular target: Phosphatidylinositol 4-phosphate 5-kinase type-1 alpha (Homo sapiens) (UniProt Q99755); settings: Compound concentration 1000.0 nM
[42] = molecular target: Dual specificity mitogen-activated protein kinase kinase 2 (Homo sapiens) (UniProt P36507); settings: Compound concentration 1000.0 nM
[43] = molecular target: Calcium/calmodulin-dependent protein kinase kinase 2 (Homo sapiens) (UniProt Q96RR4); settings: Compound concentration 1000.0 nM
[44] = system: Phosphatidylinositol 4,5-bisphosphate 3-kinase catalytic subunit alpha isoform (Homo sapiens), P42336 [M1043I]; settings: Compound concentration 1000.0 nM
Sequence of Phosphatidylinositol 4,5-bisphosphate 3-kinase catalytic subunit alpha isoform (Homo sapiens), P42336 [M1043I] (P42336 whole entry M1043I, canonical isoform): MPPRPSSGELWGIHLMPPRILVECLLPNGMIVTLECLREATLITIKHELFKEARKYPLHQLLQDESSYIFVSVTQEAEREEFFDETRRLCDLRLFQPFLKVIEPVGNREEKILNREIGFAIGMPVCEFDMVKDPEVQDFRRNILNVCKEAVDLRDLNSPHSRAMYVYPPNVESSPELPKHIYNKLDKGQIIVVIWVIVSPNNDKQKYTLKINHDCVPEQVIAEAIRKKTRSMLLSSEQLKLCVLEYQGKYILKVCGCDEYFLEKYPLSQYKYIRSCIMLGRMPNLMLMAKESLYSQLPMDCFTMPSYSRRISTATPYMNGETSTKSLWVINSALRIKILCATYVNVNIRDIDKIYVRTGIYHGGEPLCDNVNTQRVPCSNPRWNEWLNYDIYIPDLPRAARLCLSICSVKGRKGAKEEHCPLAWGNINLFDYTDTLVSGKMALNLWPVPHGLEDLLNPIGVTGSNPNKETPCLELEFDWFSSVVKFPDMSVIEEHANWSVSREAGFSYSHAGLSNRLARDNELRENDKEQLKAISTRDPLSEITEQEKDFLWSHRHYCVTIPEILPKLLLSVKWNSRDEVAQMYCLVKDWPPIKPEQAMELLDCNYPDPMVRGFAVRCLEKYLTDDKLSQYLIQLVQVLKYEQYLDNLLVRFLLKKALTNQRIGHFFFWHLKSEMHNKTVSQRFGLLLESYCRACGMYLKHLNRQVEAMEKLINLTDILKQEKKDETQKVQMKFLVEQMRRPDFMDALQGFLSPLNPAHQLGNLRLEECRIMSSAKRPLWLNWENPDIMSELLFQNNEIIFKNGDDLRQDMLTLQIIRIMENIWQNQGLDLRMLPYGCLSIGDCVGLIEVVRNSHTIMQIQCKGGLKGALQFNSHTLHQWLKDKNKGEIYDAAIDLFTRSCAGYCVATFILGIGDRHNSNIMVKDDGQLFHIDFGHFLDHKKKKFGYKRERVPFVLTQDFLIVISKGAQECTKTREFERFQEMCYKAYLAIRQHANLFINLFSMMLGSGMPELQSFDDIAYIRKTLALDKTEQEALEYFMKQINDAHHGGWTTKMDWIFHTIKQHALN

Sequence of Mast/stem cell growth factor receptor Kit (Homo sapiens), P10721 [V559D,T670I] (P10721 whole entry V559D/T670I): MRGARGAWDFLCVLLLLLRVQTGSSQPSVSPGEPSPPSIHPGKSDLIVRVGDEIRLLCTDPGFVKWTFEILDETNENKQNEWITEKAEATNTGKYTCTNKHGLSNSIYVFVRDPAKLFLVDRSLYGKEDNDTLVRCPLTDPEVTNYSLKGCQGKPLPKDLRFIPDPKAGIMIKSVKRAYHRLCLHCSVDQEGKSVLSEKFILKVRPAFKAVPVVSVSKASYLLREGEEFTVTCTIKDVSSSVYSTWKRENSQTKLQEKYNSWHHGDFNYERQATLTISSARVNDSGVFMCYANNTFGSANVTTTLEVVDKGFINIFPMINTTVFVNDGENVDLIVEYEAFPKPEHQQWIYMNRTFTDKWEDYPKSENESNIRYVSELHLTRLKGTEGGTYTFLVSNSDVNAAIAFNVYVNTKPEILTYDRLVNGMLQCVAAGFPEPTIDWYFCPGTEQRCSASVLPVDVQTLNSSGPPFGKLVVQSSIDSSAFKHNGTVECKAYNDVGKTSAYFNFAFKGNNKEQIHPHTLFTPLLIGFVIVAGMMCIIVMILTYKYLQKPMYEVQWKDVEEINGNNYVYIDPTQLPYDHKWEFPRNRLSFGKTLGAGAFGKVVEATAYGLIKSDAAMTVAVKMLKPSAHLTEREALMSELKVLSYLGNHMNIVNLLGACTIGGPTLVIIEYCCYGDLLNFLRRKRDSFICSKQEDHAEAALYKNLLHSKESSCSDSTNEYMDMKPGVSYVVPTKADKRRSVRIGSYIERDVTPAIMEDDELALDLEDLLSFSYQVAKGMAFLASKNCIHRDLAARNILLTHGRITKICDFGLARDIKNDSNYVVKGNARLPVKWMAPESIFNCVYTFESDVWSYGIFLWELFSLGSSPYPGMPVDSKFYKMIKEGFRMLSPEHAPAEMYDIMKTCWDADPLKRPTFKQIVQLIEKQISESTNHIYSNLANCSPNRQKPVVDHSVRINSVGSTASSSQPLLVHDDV
Sequence of Dual specificity mitogen-activated protein kinase kinase 2 (Homo sapiens) (P36507 whole entry): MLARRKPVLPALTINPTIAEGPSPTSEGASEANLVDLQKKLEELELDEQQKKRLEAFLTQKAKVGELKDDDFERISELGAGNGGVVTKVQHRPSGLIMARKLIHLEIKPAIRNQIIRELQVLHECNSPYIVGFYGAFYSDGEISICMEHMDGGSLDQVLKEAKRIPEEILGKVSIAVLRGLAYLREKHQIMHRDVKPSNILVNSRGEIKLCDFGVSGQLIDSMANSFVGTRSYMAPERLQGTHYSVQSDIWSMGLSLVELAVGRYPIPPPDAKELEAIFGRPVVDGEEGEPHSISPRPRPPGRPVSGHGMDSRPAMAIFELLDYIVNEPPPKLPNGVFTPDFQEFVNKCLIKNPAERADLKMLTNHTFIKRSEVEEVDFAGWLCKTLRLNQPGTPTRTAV
Sequence of Serine/threonine-protein kinase Nek9 (Homo sapiens) (Q8TD19 whole entry): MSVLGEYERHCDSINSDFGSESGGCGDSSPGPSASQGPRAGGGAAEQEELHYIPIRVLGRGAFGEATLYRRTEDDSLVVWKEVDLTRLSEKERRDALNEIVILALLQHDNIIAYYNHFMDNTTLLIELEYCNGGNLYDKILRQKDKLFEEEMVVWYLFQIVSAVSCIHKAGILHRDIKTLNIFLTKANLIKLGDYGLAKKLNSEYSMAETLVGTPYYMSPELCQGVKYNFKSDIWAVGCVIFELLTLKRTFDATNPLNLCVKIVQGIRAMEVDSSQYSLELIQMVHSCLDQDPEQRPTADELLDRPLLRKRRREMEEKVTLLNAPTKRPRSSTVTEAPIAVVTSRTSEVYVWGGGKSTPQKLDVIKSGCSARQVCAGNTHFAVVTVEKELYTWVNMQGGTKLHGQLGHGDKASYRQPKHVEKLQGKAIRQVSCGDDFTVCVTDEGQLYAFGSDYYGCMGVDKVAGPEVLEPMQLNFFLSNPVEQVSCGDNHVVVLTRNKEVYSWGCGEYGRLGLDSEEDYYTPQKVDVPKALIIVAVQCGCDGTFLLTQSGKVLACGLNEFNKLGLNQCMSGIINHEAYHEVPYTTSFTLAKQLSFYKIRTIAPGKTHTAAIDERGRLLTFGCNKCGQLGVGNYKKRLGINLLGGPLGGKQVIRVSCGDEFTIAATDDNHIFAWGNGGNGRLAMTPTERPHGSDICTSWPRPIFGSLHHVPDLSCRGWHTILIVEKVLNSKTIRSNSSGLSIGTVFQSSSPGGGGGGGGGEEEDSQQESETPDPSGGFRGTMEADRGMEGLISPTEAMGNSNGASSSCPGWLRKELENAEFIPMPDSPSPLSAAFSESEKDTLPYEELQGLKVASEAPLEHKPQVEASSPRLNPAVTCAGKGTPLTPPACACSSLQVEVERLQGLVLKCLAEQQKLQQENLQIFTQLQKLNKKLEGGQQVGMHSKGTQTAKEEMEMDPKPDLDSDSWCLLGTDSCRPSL
Sequence of Serine/threonine-protein kinase TBK1 (Homo sapiens) (Q9UHD2 whole entry): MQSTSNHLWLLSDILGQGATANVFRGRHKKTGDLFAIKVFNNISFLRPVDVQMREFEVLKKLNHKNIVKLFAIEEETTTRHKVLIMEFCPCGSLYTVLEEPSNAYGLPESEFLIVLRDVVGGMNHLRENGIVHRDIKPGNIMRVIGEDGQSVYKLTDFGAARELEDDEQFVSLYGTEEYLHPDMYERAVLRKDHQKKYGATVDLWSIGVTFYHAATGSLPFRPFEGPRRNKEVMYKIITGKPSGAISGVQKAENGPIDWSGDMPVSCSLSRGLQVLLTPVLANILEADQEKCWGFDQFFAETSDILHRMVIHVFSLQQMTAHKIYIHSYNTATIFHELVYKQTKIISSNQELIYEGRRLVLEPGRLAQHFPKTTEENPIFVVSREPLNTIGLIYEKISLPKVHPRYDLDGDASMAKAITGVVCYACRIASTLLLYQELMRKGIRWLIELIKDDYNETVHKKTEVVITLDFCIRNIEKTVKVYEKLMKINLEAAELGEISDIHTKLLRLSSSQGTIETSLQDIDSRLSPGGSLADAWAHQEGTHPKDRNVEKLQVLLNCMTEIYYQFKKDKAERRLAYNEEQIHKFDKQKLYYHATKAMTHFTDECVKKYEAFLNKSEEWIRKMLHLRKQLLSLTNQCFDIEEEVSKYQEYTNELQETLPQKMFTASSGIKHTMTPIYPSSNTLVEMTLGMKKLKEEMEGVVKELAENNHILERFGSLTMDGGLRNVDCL
Sequence of Serine/threonine-protein kinase D1 (Homo sapiens) (Q15139 whole entry): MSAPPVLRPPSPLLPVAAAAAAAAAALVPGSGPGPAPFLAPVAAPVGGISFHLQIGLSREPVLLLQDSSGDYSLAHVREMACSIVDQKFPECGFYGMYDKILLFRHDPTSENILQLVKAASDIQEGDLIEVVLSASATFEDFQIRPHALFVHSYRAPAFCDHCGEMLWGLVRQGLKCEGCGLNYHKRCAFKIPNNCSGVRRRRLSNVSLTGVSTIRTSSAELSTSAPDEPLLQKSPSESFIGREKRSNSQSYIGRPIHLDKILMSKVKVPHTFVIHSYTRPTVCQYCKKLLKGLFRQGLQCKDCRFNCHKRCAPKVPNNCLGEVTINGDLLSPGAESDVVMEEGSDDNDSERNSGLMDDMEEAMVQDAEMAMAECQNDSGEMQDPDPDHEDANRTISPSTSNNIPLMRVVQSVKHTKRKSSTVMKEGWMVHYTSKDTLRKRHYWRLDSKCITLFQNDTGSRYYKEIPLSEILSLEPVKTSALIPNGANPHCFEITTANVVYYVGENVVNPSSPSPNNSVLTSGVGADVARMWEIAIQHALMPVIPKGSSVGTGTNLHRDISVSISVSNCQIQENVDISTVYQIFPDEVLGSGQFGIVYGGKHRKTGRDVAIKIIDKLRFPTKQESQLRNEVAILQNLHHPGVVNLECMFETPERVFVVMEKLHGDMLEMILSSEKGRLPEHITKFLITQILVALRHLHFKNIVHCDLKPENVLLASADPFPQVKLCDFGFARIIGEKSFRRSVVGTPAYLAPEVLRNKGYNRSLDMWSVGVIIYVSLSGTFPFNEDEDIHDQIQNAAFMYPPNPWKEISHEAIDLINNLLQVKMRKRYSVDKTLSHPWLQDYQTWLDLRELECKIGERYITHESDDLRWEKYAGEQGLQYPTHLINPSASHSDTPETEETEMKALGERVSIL

## CCCOc1ccc([C@H]2[C@H](C(=O)O)[C@@H](c3ccc4c(c3)OCO4)CN2CC(=O)Nc2c(CC)cccc2CC)cc1 [A-192621]
[1]
  residual activity: 91%
[2]
  residual activity: 57%
[3]
  % Inhibition of Control Specific Binding (Mean n=2): -17.9%
[4]
  residual activity: 58%
[5]
  residual activity: 88%
[6]
  residual activity: 100%
[7]
  % Inhibition of Control Specific Binding (Mean n=2): -7.7%
[8]
  residual activity: 74%
[9]
  residual activity: 93%
[10]
  residual activity: 100%
[11]
  % Inhibition of Control Specific Binding (Mean n=2): 77.4%
[12]
  residual activity: 79%
[13]
  residual activity: 85%
[14]
  residual activity: 95%
[15]
  residual activity: 100%
[16]
  % Inhibition of Control Specific Binding (Mean n=2): -0.2%
[17]
  residual activity: 86%
[18]
  % Inhibition of Control Specific Binding (Mean n=2): -8.6%
[19]
  residual activity: 88%
[20]
  residual activity: 58%
[21]
  residual activity: 94%
[22]
  residual activity: 81%
[23]
  residual activity: 90%
[24]
  residual activity: 92%
[25]
  residual activity: 75%
[26]
  residual activity: 100%
[27]
  residual activity: 100%
[28]
  % Inhibition of Control Specific Binding (Mean n=2): 1.9%
[29]
  residual activity: 100%
[30]
  residual activity: 73%
[31]
  residual activity: 100%
[32]
  % Inhibition of Control Specific Binding (Mean n=2): -11.2%
[33]
  residual activity: 74%
[34]
  residual activity: 73%
[35]
  residual activity: 88%
[36]
  residual activity: 87%
[37]
  residual activity: 100%
[38]
  residual activity: 87%
[39]
  residual activity: 92%
[40]
  residual activity: 76%
[41]
  residual activity: 82%
[42]
  residual activity: 62%
[43]
  residual activity: 93%
[44]
  residual activity: 91%

## CCCOc1ccc([C@@H]2[C@@H](C(=O)O)[C@H](c3ccc4c(c3)OCO4)CN2CC(=O)Nc2c(CC)cccc2CC)cc1 [A-1806262]
[1]
  residual activity: 100%
[2]
  residual activity: 73%
[3]
  % Inhibition of Control Specific Binding (Mean n=2): 4.4%
[4]
  residual activity: 81%
[5]
  residual activity: 96%
[6]
  residual activity: 100%
[7]
  % Inhibition of Control Specific Binding (Mean n=2): 5.2%
[8]
  residual activity: 89%
[9]
  residual activity: 100%
[10]
  residual activity: 86%
[11]
  % Inhibition of Control Specific Binding (Mean n=2): 60.8%
[12]
  residual activity: 86%
[13]
  residual activity: 90%
[14]
  residual activity: 100%
[15]
  residual activity: 93%
[16]
  % Inhibition of Control Specific Binding (Mean n=2): 3.6%
[17]
  residual activity: 97%
[18]
  % Inhibition of Control Specific Binding (Mean n=2): -12.3%
[19]
  residual activity: 100%
[20]
  residual activity: 83%
[21]
  residual activity: 96%
[22]
  residual activity: 86%
[23]
  residual activity: 100%
[24]
  residual activity: 59%
[25]
  residual activity: 78%
[26]
  residual activity: 100%
[27]
  residual activity: 95%
[28]
  % Inhibition of Control Specific Binding (Mean n=2): 0.4%
[29]
  residual activity: 100%
[30]
  residual activity: 76%
[31]
  residual activity: 100%
[32]
  % Inhibition of Control Specific Binding (Mean n=2): 3.7%
[33]
  residual activity: 85%
[34]
  residual activity: 100%
[35]
  residual activity: 55%
[36]
  residual activity: 93%
[37]
  residual activity: 78%
[38]
  residual activity: 100%
[39]
  residual activity: 98%
[40]
  residual activity: 100%
[41]
  residual activity: 90%
[42]
  residual activity: 89%
[43]
  residual activity: 84%
[44]
  residual activity: 91%
